The values below come from US12491170B2, “Stable treprostinil prodrugs” (United Therapeutics Corporation, priority 2020, dated 2025).

Read-outs that look alike come from different tables or passages of the source.

The target in one data set is T1, PGE2 receptor 1 (EP1) (Homo sapiens, UniProt P34995).
T1 sequence (P34995 1-402): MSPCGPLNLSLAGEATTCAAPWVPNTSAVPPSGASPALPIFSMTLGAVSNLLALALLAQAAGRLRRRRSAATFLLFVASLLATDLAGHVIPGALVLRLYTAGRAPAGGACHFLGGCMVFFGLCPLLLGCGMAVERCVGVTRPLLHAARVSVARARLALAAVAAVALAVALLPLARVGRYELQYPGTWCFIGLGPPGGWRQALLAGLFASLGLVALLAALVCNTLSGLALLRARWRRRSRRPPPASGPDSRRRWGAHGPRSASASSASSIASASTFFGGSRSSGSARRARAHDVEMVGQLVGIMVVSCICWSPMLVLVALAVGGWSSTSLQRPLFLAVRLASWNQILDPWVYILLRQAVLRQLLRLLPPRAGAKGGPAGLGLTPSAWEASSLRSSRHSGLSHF
Briefly: EP1 receptor calcium agonist assay (HEK293T cells). Type of data set: cell-based. The note with it: Table 22, relative to treprostinil EC50 values, * partial agonists or ambiguous dose-response curves. On the procedure:
Calcium assay kit: Multiscreen™ Calcium 1.0 No Wash Kit (Multispan, Inc., Cat #MSCA01-1)
• EP1 Calcium and DP1 cAMP Assays: HBSS plus 20 mM HEPES • EP2 and IP1 cAMP Assays: 1 mM IBMX in HBSS plus 20 mM HEPES Instruments: FlexStation III (Molecular Devices) and FLIPR 384 (Molecular Devices)
Cells were thawed from frozen cells and resuspended in assay buffer at desired concentrations. cAMP or Calcium assays were performed according to the manufacturer's protocol using Multiscreen™ TR-FRET cAMP 1.0 No Wash Assay Kit or Multiscreen™ Calcium 1.0 No Wash Kit.
Calcium Assay: Cells were seeded in a 384-well plate at an appropriate density. The calcium assay was conducted according to the manufacturer's protocols (Multiscreen Calcium 1.0 No Wash Assay Kit). The calcium dye loading buffer was added to the cells and incubated for 1 hour at 37° C. For agonist mode, cells were injected with Iloprost control agonist or test compound by FLIPR and calcium mobilization was monitored for 180 seconds with compound injected into the wells at the 19th second. Fluorescent emissions were read at 525 nm with excitation at 490 nm in a FLIPR 384 instrument (Molecular Devices).
Calcium Assay: Calcium assay results are expressed as “RFU” as defined in figure below. Data are represented in Mean±SEM. Dose-response curves were fitted using “Sigmoidal dose-response (variable slope)” function in GraphPad Prism 6. EC50 values were calculated based on the fitted curves.
Prostaglandin receptor activity assessments with treprostinil and treprostinil analogues have been conducted, and a historical, positive control agonist for these receptors, iloprost (for IP, EP2 and EP1) or PGD2 (for DP1), was also included. These studies used cell lines overexpressing either human IP, EP2 or DP1, or EP1 receptors, and following incubation with varying concentrations of compounds, cAMP levels were measured using Fluorescence Resonance Energy Transfer (FRET). The 665/620 (acceptor/donor emission signals) ratio is inversely proportional to the concentration of cAMP.

Data set [1] is described as follows: Hydrolysis of prodrugs to treprostinil at pH 6, 7, 8 and 40 C. Type of data set: physicochemical. The text has this: Tables 24, 25 and 26 present data for hydrolysis of selected treprostinil prodrugs at pH 6, 7 and 8, respectively, and 40 C.
Data set [2] can be described thus: Stability in simulated intestinal fluid. Type of data set: in vitro ADME. Here is the method:
Studies were carried out in simulated intestinal fluid (SIF). SIF was prepared by dissolving 6.8 g of KH2PO4 in 250 mL of water, mixing, and then adding 77 mL of 0.2 N NaOH and […] of water. […] DMSO stocks were first prepared for the test articles. […] The vials were kept in a benchtop Thermomixer® for the duration of the experiment. A separate tube was dosed for each time point in each matrix. […] Samples were mixed and then immediately stored at 4° C. until the end of the experiment. After the final time point was sampled, the plate was mixed and then centrifuged at 3000 rpm for 10 minutes.

For data set [3] the following is noted: rat.
The conditions of data set [4]: dog.
Data set [5] is described as follows: Plasma stability, rat plasma. Type of data set: in vitro ADME, Sprague-Dawley rat. On the procedure:
(§1) Studies were carried out in mixed-gender human plasma male Sprague-Dawley rat plasma, and male Beagle dog plasma. All plasma was obtained from Bioreclamation and collected on K2EDTA. Plasma was adjusted to pH 7.4 prior to initiating the experiments. DMSO stocks were first prepared for the test articles. […] The vials were kept in a benchtop Thermomixer® for the duration of the experiment. […] Samples were stored at 4° C. until the end of the experiment. After the final time point was sampled, the plate was mixed and then centrifuged at 3000 rpm for 10 minutes.

A short description of data set [6]: Plasma stability, human plasma. Type of data set: in vitro ADME. On the procedure: as §1
The nature of data set [7]: Plasma stability, dog plasma. The class given is in vitro ADME, Beagle dog. On the procedure: as §1
[8] abbreviates: SIF pH 6.8 with pancreatin, 1 μM, 37° C.
Setting [9] is: SIF pH 6.8 with pancreatin, 1 μM, 37° C., 0 min.
Setting [10] is: SIF pH 6.8 with pancreatin, 1 μM, 37° C., 15 min.
The mark [11] stands for this setting: SIF pH 6.8 with pancreatin, 1 μM, 37° C., 60 min.
The mark [12] stands for this setting: SIF pH 6.8 with pancreatin, 1 μM, 37° C., 120 min.

For the compound `CCCCCC(CCC1C(O)CC2Cc3c(cccc3OCC(=O)O)CC21)OC(=O)CC` (stereo not drawn) [Prodrug LV], the “EP1 Relative to Tre” value on PGE2 receptor 1 (EP1) is listed as 122x*.

As to `CCCCCC(CCC1C(OC(=O)OC)CC2Cc3c(cccc3OCC(=O)O)CC21)OC(=O)OC` (stereo not drawn) [Prodrug LXXI, treprostinil dicarbonate], the “Hydrolysis to treprostinil, % Area, t = 1 week” value in data set [1] (pH 6, 40 C.) turned out to be 0.00 % Area; in data set [1] (pH 7, 40 C.) it was 0.00 % Area; in data set [1] (pH 8, 40 C.), 0.00 % Area. Moreover, the “Hydrolysis to treprostinil, % Area, t = 2 weeks” value in data set [1] (pH 6, 40 C.) came to 0.00 % Area; in data set [1] (pH 7, 40 C.) it was 0.00 % Area; in data set [1] (pH 8, 40 C.) it was 0.00 % Area. Besides, the “Hydrolysis to treprostinil, % Area, t = 3 weeks” value in data set [1] (pH 6, 40 C.) is recorded as 0.00 % Area; in data set [1] (pH 7, 40 C.), 0.00 % Area; in data set [1] (pH 8, 40 C.), 0.38 % Area. Besides, the Half-life in data set [2] (setting [8]) is greater than 2 h. The “Percent Remaining 0 min” value in data set [2] (setting [9]) is 100%. The “Percent Remaining 15 min” value in data set [2] (setting [10]) is on record as 96.2%. Further, the “Percent Remaining 30 min” value in data set [2] (SIF pH 6.8 with pancreatin, 1 μM, 37° C., 30 min) is reported as 100%. Also, in data set [2] (setting [11]), the “Percent Remaining 60 min” value is 91.9%. Moreover, the “Percent Remaining 120 min” value in data set [2] (setting [12]) is 83.5%. For the same compound, the AUC in data set [3] was 33.51 µmol·min/L; in data set [4], 56.21 µmol·min/L.

In the case of `CCCCCC(CCC1C(O)CC2Cc3c(cccc3OCC(=O)O)CC21)OP(=O)(O)O` (stereo not drawn) [Prodrug VI], the “EP1 Relative to Tre” value is listed as 5x on PGE2 receptor 1 (EP1) and 42x on PGE2 receptor 1 (EP1) (listed as Prodrug VI repeat).

Take `CCCCCC(CCC1C(O)CC2Cc3c(cccc3OCC(=O)O)CC21)OC(C)=O` (stereo not drawn) [Prodrug XLIII]: on PGE2 receptor 1 (EP1), the “EP1 Relative to Tre” value is listed as 20x*.

As to treprostinil diacetate [Prodrug LXXII], the “Hydrolysis to treprostinil, % Area, t = 1 week” value worked out at 0.00 % Area in data set [1] (pH 6, 40 C.); 0.00 % Area in data set [1] (pH 7, 40 C.); 0.00 % Area in data set [1] (pH 8, 40 C.). The “Hydrolysis to treprostinil, % Area, t = 2 weeks” value in data set [1] (pH 6, 40 C.) came out at 0.00 % Area; in data set [1] (pH 7, 40 C.), 0.00 % Area; in data set [1] (pH 8, 40 C.), 0.00 % Area. The “Hydrolysis to treprostinil, % Area, t = 3 weeks” value in data set [1] (pH 6, 40 C.) was 0.00 % Area; in data set [1] (pH 7, 40 C.) it was 0.00 % Area; in data set [1] (pH 8, 40 C.), 0.00 % Area. For the same compound, the Half-life in data set [2] (setting [8]) was greater than 2 h; in data set [5] (1 μM, 37° C.), greater than 2 h; in data set [6] (1 μM, 37° C.), greater than 2 h; in data set [7] (1 μM, 37° C.), greater than 2 h. For the same compound, the “Percent Remaining 0 min” value in data set [2] (setting [9]) is 100%; in data set [5] (1 μM, 37° C., 0 min), 100%; in data set [6] (1 μM, 37° C., 0 min), 100%; in data set [7] (1 μM, 37° C., 0 min), 100%. The “Percent Remaining 15 min” value is listed as 111% in data set [2] (setting [10]); 107% in data set [5] (1 μM, 37° C., 15 min); 106% in data set [6] (1 μM, 37° C., 15 min); 96.7% in data set [7] (1 μM, 37° C., 15 min). The “Percent Remaining 60 min” value in data set [2] (setting [11]) is 108%; in data set [5] (1 μM, 37° C., 60 min) it was 83.6%; in data set [6] (1 μM, 37° C., 60 min) it was 102%; in data set [7] (1 μM, 37° C., 60 min), 107%. Moreover, the “Percent Remaining 120 min” value is on record as 109% in data set [2] (setting [12]); 79.7% in data set [5] (1 μM, 37° C., 120 min); 86.5% in data set [6] (1 μM, 37° C., 120 min); 82.9% in data set [7] (1 μM, 37° C., 120 min). The “Formation of Treprostinil, Concentration 0 min” value was 0 µM in data set [2] (SIF, prodrug dosed 1 μM, 0 min); 0 µM in data set [5] (prodrug dosed 1 μM, 0 min); 0 µM in data set [6] (prodrug dosed 1 μM, 0 min); 0 µM in data set [7] (prodrug dosed 1 μM, 0 min). Besides, the “Formation of Treprostinil, Concentration 15 min” value was 0 µM in data set [2] (SIF, prodrug dosed 1 μM, 15 min); 0 µM in data set [5] (prodrug dosed 1 μM, 15 min); 0 µM in data set [6] (prodrug dosed 1 μM, 15 min); 0 µM in data set [7] (prodrug dosed 1 μM, 15 min). Besides, the “Formation of Treprostinil, Concentration 30 min” value is 0 µM in data set [2] (SIF, prodrug dosed 1 μM, 30 min); 0 µM in data set [5] (prodrug dosed 1 μM, 30 min); 0 µM in data set [6] (prodrug dosed 1 μM, 30 min); 0 µM in data set [7] (prodrug dosed 1 μM, 30 min). The “Formation of Treprostinil, Concentration 60 min” value in data set [2] (SIF, prodrug dosed 1 μM, 60 min) is 0 µM; in data set [5] (prodrug dosed 1 μM, 60 min), 0.00595 µM; in data set [6] (prodrug dosed 1 μM, 60 min) it was 0 µM; in data set [7] (prodrug dosed 1 μM, 60 min), 0 µM. The “Formation of Treprostinil, Concentration 120 min” value in data set [2] (SIF, prodrug dosed 1 μM, 120 min) was 0.0126 µM; in data set [5] (prodrug dosed 1 μM, 120 min) it was 0.0151 µM; in data set [6] (prodrug dosed 1 μM, 120 min), 0 µM; in data set [7] (prodrug dosed 1 μM, 120 min), 0 µM. The values for the AUC in data set [3] and in data set [4] were 10.02 µmol·min/L and 60.91 µmol·min/L, respectively.

By AUC is commonly meant concentration integrated over time.
